Measured values from patent publication US5428036A (H. Lundbeck A/S, priority 1990, dated 1995).
pIC50: −log10 of the molar value.

Key:
[1] = target: T1, serotonin S2 (5-HT2) receptors (Rattus norvegicus, UniProt P14842); assay: Inhibition of 3H-ketanserin binding to serotonin S2 (5-HT2) receptors in rat cortex in vitro; conditions: for pIC50: 0.5 nM 3H-ketanserin, rat cortex membranes, 37° C., 30 min
T1 construct: from tissue; host or cells: cerebral cortex membranes of male Wistar (Mol:Wist) rats
Experimental: (§1) The prodrugs of the invention were tested in vitro for 5-HT2 receptor affinity (^3 H-ketanserin binding) and for 5-HT2 antagonistic effect in vivo (antagonism of quipazine induced head twiches).
Inhibition of ^3 H-ketanserin Binding to Serotonin S2 (5-HT2)Receptors in Rat Cortex in vitro
By this method the inhibition by drugs of the binding of ^3 H-Ketanserin (0,5 nM) to serotonin S2 (5-HT2) receptors in membranes from rat corex is determined in vitro. Method in Hyttel, Pharmacol. & Toxicol, 61, 126-129 1987.
Male Wistar (Mol:Wist) rats are sacrificed and cortical tissue is dissected and weighed. The tissue is homogenized (Ultra Turrax, 10 sec.) in 10 ml of ice-cold 50 mM tris buffer pH 7.7 (at 25° C.). The centrifuge glass ware used in this step has been rinsed by sonication for 10 min. in ethanol. The homogenate is centrifuged twice at 20,000 g for 10 min. at 4° C. with rehomogenization of the pellet in 10 ml ice-cold buffer. The final pellet is homogenized in 500 vol (w/v) ice-cold buffer. Incubation tubes kept on ice in triplicate receive 100 μl of drug solution in water (or water for total binding) and […] of tissue suspension (final tissue content corresponds to 4 mg original tissue). The binding experiment is initiated by addition of 100 μl of ^3 H-Ketanserin (final concentration 0.5 nM) and by placing the tubes in a 37° C. water bath. After incubation for 30 min. the samples are filtered under vacuum (0-50 mBar) through Whatman GF/F filters (25 mm). The tubes are rinsed with 5 ml ice-cold buffer which are then poured on the filters. Thereafter, the filters are washed with 2×5 ml of buffer. The filters are placed in counting vials and 4 ml of appropriate scintillation fluid (e.g. Picofluor™ 15) are added. After shaking for 1 h and storage 2 hrs in the dark the content of radioactivity is determined by liquid scintillation counting. Specific binding is obtained by subtracting the nonspecific binding in the presence of 1 μM mianserin. For determination of the inhibition of binding five concentrations of drugs covering 3 decades are used.
The IC50 value is determined as the concentration at which the binding is 50% of the total binding in control samples minus the nonspecific binding in the presence of 1 μM mianserin.
^3 H-Ketanserin=[ethylene-^3 H]-ketanserin hydrochloride from New England Nuclear, specific activity 60-80 Ci/mmol.

[2] = Sertindole concentration in dog serum after i.m. depot dosing in Viscoleo (HPLC); format: in vivo, Beagle dogs; conditions: i.m. depot formulation in dogs; FIG. 1
Experimental: The depot effects of the compounds of the invention were determined as described in the following example:
Seven Beagle dogs were used. One male and one female dog were used for each preparation exept for 1a where only one female dog was used. The compounds were dissolved in Viscoleo®. One ml Viscoleo® equivalent 1 kg dog. The dogs were dosed i.m. approx. 5 ml in each thigh.
Blood samples were drawn at 1,2, 4, 8, and 24 hours after dosing, and 2, 4, 7, 10, and 14 days after dosing.
The serum samples were analyzed by HPLC using a system consisting of a Spherisorb S5W column (25 cm×4.6 mm) and a Hewlett Packard HP 1090 chromatograph with a HP 1050 UV-absorbance detector with a measuring wavelength of 254 nm. Elution was performed with n-heptane/2-propanol/conc. ammonia/water in the ratio 100/18.4/0.5/0.2, v/v as eluent at ambient temperature with a pressure of approximately 70 bar and a flow rate of 1 ml/min.

5-HT2 = target: T2, 5-HT2 (Rattus norvegicus, UniProt P14842); assay: Quipazine inhibition (antagonism of quipazine induced head twitches in rats); format: in vivo; conditions: for ED50: po, p.o. 24 hrs before quipazine (6.8 mg/kg, s.c.), head twitches, rat
T2 construct: Four rats, male Wistar (Mol:Wist) SPF rats, are used at each dose level; from tissue; host or cells: living male Wistar (Mol:Wist) SPF rats; receptor endogenous to the animal
Experimental: as §1
Quipazine is a 5-HT2 agonist, which induces head twitches in rats. The test is a test for 5-HT2 -antagonistic effect measuring the ability to inhibit head twitches. The method and test results for some reference substances are published by Arnt et al. (Drug Dev. Res., 16, 59-70, 1989).
Test substance is given p.o. 24 hrs before quipazine administration (6.8 mg/kg, s.c., dimaleate). Four rats, male Wistar (Mol:Wist) SPF rats, are used at each dose level. A control group is included each test day. After quipazine administration the rats are individually placed in the observation cages and head twitches are counted in an observation period of 10 min. 30-40 min. after injection of quipazine.
Total number of head twitches in each group are calculated and the result for each dose is expressed as percent of the response in the control group. ED50 values are calculated by log-probit analysis. The test must be repeated if the average number of head twitches is lower than 9 in the control group.

T2 sequence (P14842 whole entry): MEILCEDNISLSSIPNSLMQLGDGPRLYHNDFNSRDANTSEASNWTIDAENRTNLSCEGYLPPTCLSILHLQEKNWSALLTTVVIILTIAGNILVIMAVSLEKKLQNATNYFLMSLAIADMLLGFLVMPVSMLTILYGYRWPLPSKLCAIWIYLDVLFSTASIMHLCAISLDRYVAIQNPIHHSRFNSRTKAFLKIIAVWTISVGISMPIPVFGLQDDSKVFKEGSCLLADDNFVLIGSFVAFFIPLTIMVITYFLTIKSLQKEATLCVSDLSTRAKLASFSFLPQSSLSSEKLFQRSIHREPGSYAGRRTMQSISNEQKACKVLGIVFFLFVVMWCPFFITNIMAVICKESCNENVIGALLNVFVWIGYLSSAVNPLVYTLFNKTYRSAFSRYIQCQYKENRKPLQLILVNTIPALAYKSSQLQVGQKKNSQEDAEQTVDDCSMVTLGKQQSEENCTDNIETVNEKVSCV
T1 sequence (P14842 whole entry): as above

Serotonin S2 (5-HT2) antagonism in vitro ([1]; in vitro, statement in words) | Serotonin S2 (5-HT2) antagonism in vivo (5-HT2; in vivo, statement in words) | Compound | pIC50 [1] | decomposition to sertindole after injection of a depot formulation [2] | ED50 (5-HT2) [µmol/kg]
– | – | CC(=O)N1CCN(CCN2CCC(c3cn(-c4ccc(F)cc4)c4ccc(Cl)cc34)CC2)C1=O [Compound 1a] | 8.92 | decompose to sertindole after injection of a depot formulation | 0.029
– | – | CCCCCCCCCC(=O)N1CCN(CCN2CCC(c3cn(-c4ccc(F)cc4)c4ccc(Cl)cc34)CC2)C1=O [Compound 1b, 5-chloro-3-[1-[2-(3-decanoyl-2-imidazolidinon-1-yl)ethyl]-4-piperidyl]-1-(4-fluorophenyl)-1H-indole] | 7.24 | – | 0.09
– | – | CCCCCCCCCCCCCCCC(=O)N1CCN(CCN2CCC(c3cn(-c4ccc(F)cc4)c4ccc(Cl)cc34)CC2)C1=O [Compound 1e] | 7.33 | – | 0.77
– | – | O=C(c1ccccc1)N1CCN(CCN2CCC(c3cn(-c4ccc(F)cc4)c4ccc(Cl)cc34)CC2)C1=O [Compound 1f, 3-[1-[2-(3-benzoyl-2-imidazolidinon-1-yl)ethyl]-4-piperidyl]-5-chloro-1-(4-fluorophenyl)-1H-indole] | 8.03 | – | 0.05
– | – | CCCCCCCC/C=C\CCCCCCCC(=O)N1CCN(CCN2CCC(c3cn(-c4ccc(F)cc4)c4ccc(Cl)cc34)CC2)C1=O [Compound 2a] | 6.59 | – | 0.55
– | – | CN(C)C(=O)N1CCN(CCN2CCC(c3cn(-c4ccc(F)cc4)c4ccc(Cl)cc34)CC2)C1=O [Compound 4a, 5-Chloro-3-[1-[2-(3-dimethylcarbamyl-2-imidazolidinon-1-yl)ethyl]-4-piperidyl]-1-(4-fluorophenyl)-^1 H-indole] | 9.05 | – | 0.24
– | – | CCCCCCCCCCOC(=O)N1CCN(CCN2CCC(c3cn(-c4ccc(F)cc4)c4ccc(Cl)cc34)CC2)C1=O [Compound 4d, 5-chloro-3-[1-[2-[3-(1-decyl)oxycarbonyl-2-imidazolidinon-1-yl]ethyl]-4-piperidyl]-1-(4-fluorophenyl)-1H-indole] | 7.89 | – | 1.1
– | – | O=C1N(CO)CCN1CCN1CCC(c2cn(-c3ccc(F)cc3)c3ccc(Cl)cc23)CC1 [Compound 5a, 5-Chloro-1-(4-fluorophenyl)-3-[1-[2-(3-hydroxymethyl-2-imidazolidinon-1-yl)ethyl]-4-piperidyl]-1H-indole] | 9.33 | – | 0.037
– | – | O=C1N(CCN2CCC(c3cn(-c4ccc(F)cc4)c4ccc(Cl)cc34)CC2)CCN1CN1CCOCC1 [Compound 6a, 5-Chloro-1-(4-fluorophenyl)-3-[1-[2-[3-(1-morpholinomethyl)-2-imidazolidinon-1-yl]ethyl]-4-piperidyl]-1H-indole] | 9.01 | – | 0.079
– | – | CN(C)CN1CCN(CCN2CCC(c3cn(-c4ccc(F)cc4)c4ccc(Cl)cc34)CC2)C1=O [Compound 6b, 5-chloro-3-[1-[2-(3-dimethylaminomethyl-2-imidazolidinon-1-yl)ethyl]-4-piperidyl]-1-(4-fluorophenyl)-1H-indole] | 9.22 | – | –
– | – | CCOCN1CCN(CCN2CCC(c3cn(-c4ccc(F)cc4)c4ccc(Cl)cc34)CC2)C1=O [Compound 7a, 5-Chloro-3-[1-[2-(3-ethoxymethyl-2-imidazolidinon-1-yl)ethyl]-4-piperidyl]-1-(4-fluorophenyl)-1H-indole] | 8.92 | – | 0.081
– | – | CCCCCCCCCCOCN1CCN(CCN2CCC(c3cn(-c4ccc(F)cc4)c4ccc(Cl)cc34)CC2)C1=O [Compound 7d] | 7.31 | – | 0.15
– | – | CC(C)c1ccc(C(=O)N2CCN(CCN3CCC(c4cn(-c5ccc(F)cc5)c5ccc(Cl)cc45)CC3)C2=O)cc1 [Compound 8a, 5-Chloro-1-(4-fluorophenyl)-3-[1-[2-[3-(4-isopropylbenzoyl)-2-imidazolidinon-1-yl]ethyl]-4-piperidyl]-1H-indole] | 7.70 | – | 0.12
– | – | CC(=O)Oc1ccccc1C(=O)N1CCN(CCN2CCC(c3cn(-c4ccc(F)cc4)c4ccc(Cl)cc34)CC2)C1=O [Compound 8c] | 7.62 | – | 0.057
– | – | CCCC(=O)N1CCN(CCN2CCC(c3cn(-c4ccc(F)cc4)c4ccc(Cl)cc34)CC2)C1=O [Compound 8d, 3-[1-[2-(3-butanoyl-2-imidazolidinon-1-yl)ethyl]-4-piperidyl]-5-chloro-1(4-fluorophenyl)-1H-indole] | 8.25 | – | 0.014
– | – | CCCCCC(=O)N1CCN(CCN2CCC(c3cn(-c4ccc(F)cc4)c4ccc(Cl)cc34)CC2)C1=O [Compound 8e, 5-chloro-1-(4-fluorophenyl)-3-[1-[2-(3-hexanoyl-2-imidazolidinon-1-yl)ethyl]-4-piperidyl]-1H-indole] | 7.42 | – | 0.039
– | – | CCCCCCCC(=O)N1CCN(CCN2CCC(c3cn(-c4ccc(F)cc4)c4ccc(Cl)cc34)CC2)C1=O [Compound 8f, 5-chloro-1-(4-fluorophenyl)-3-[1-[2-(3-octanoyl-2-imidazolidinon-1-yl)ethyl]-4-piperidyl]-1H-indole] | 6.85 | – | 0.092
very potent | very potent | O=C1NCCN1CCN1CCC(c2cn(-c3ccc(F)cc3)c3ccc(Cl)cc23)CC1 [sertindole, 5-chloro-1-(4-fluorophenyl)-3-[1-[2-(2-imidazolidinon-1-yl)ethyl]-4-piperidyl]-1H-indole, reference compound] | – | – | –
